According to patent EP1976842B1 (priority 2006, dated 2007):
Where two headings read alike, the source gives them in different places.

Biological target: T1, alpha7 nAChR (Rattus norvegicus, UniProt Q05941)
T1 construct: expressed in transfected cells
Assay: cell-based
From the text: Rat GH4C1 cells were then transfected with the rat receptor, cloned and analyzed for functional alpha7 nicotinic receptor expression employing a FLIPR assay to measure changes in intracellular calcium concentrations.
The FLIPR system allows the measurements of real time Ca^2+-concentration changes in living cells using a Ca^2+ sensitive fluorescence dye (such as Fluo4). This instrument enables the screening for agonists and antagonists for alpha 7 nAChR channels stably expressed in GH4Cl cells.
GH4Cl cells stably transfected with rat- alpha7-nAChR (see above) were used. These cells are poorly adherent and therefore pretreatment of flasks and plates with poly-D-lysine was carried out. Cells are grown in 150 cm^2 T-flasks, filled with 30 ml of medium at 37°C and 5% CO2.
EC50 and IC50 values were calculated using the IDBS XLfit4.1 software package employing a sigmoidal concentration-response (variable slope) equation: Y = Bottom + ((Top-Bottom)/(1+(((EC50/X))^(∧)⁢HillSlope)). [formula]
The compounds were tested using the functional FLIPR primary screening assay employing the stable recombinant GH4C1 cell line expressing the alpha7 nAChR. Hits identified were validated further by generation of concentration-response curves.

T1 sequence (Q05941 23-502): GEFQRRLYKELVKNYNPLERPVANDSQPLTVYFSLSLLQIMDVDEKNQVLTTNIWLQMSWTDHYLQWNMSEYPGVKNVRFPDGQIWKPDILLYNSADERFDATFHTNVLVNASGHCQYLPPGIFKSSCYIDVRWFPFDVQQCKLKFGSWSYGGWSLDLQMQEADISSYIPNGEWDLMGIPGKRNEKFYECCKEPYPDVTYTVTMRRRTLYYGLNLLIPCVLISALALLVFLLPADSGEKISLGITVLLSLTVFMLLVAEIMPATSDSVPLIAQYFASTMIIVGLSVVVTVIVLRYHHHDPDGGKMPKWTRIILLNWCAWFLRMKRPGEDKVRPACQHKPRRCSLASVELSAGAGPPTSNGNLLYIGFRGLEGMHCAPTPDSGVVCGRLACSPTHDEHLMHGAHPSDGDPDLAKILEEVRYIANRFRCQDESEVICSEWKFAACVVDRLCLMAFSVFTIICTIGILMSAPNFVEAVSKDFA

Row | Structure (SMILES) | EC50 | EC50 (agonist concentration-response, 0.001 to 30 microM, alpha7 nAChR stably expressed in GH4C1 cells, read-out: EC50)
1 | O=c1cccc2n1C[C@@H]1CNC[C@H]2C1 [Cytisine, cytisine] | 1.21 ± 0.13 µM | 
2 | C[N+](C)(C)CCO [Choline, choline] | 24.2 ± 8.3 µM | 
3 | C[N+]1(C)CCN(c2ccccc2)CC1 [DMPP] |  | 0.98 ± 0.47 µM
